Test results as given in patent US20150141324A1 (priority 2011, published 2015).
Peptide text beside a SMILES is read from it. * marks the point of attachment. NH(4-amidinobenzyl) = N=C(N)c1ccc(CN*)cc1; Decanoyl = CCCCCCCCCC(=O)*; X2 = N=C(N)NC/C=C/CN*; CH2Cl = ClC*

Experiments:
[1] = test system: Escherichia coli O157:H7 Shiga toxin
furin = biological target: T1, furin (Homo sapiens, UniProt P09958); assay type: cell-based
T1 construct: endogenous in cells; host or cells: HEK293
T1 sequence (P09958 108-794): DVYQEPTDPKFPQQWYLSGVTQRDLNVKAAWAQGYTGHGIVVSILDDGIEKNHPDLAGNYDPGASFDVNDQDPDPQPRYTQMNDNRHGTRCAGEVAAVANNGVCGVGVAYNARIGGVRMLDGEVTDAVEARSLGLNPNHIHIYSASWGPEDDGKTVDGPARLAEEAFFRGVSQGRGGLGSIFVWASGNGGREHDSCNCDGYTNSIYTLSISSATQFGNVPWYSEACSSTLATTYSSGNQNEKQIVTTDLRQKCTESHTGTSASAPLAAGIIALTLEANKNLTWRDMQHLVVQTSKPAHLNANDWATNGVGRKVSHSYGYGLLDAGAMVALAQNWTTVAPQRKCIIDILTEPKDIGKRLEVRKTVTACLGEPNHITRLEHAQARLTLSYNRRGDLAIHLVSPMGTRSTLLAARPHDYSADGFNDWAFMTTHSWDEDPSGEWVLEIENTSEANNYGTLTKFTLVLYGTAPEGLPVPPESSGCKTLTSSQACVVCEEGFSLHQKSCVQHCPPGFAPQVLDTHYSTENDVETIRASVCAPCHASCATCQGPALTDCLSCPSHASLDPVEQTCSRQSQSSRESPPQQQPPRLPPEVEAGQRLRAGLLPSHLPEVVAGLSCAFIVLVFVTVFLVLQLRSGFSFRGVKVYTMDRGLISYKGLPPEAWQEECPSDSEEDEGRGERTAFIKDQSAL

Structure (SMILES)	IC50 [1]	IC50 described in words [1]	potency against furin in cell fusion inhibition, compared to RxxT control peptide (furin)
C[C@H](NC(=O)[C@H](CCCNC(=N)N)NC(=O)CCCCCCCN)C(=O)N[C@@H](CCCNC(=N)N)C(=O)N[C@@H](CCCNC(=N)N)C(=O)N[C@@H](CCCNC(=N)N)C(=O)N[C@@H](CCCCN)C(=O)N[C@@H](CCCCN)C(=O)NN(CCCNC(=N)N)CC(=O)N[C@H](C(N)=O)[C@@H](C)O [Aoc-RxxT[Azaβ3R]^P1]	16.7 µM	similar	increased potency
CCCCCCCCCC(=O)N[C@@H](CCCNC(=N)N)C(=O)N[C@H](C(=O)N[C@@H](CCCCN)C(=O)N[C@@H](CCCNC(=N)N)C(=O)CCl)[C@@H](C)O [DEC-RTKR-CMK, reference compound] (Decanoyl-RTKR-CH2Cl)	11.5 µM	–	–
CC(=O)N[C@@H](CCCNC(=N)N)C(=O)N[C@@H](C)C(=O)N[C@@H](CCCNC(=N)N)C(=O)N[C@@H](CCCNC(=N)N)C(=O)N[C@@H](CCCNC(=N)N)C(=O)N[C@@H](CCCCN)C(=O)N[C@@H](CCCCN)C(=O)N[C@@H](CCCNC(=N)N)C(=O)N[C@H](C(N)=O)[C@@H](C)O [RxxT, Ac-R-A-R-R-R-K-K-R-T-NH2, reference compound]	> 1000 µM	–	–
CC(=O)NN(CCCNC(=N)N)CC(=O)N[C@@H](C)C(=O)N[C@@H](CCCNC(=N)N)C(=O)N[C@@H](CCCNC(=N)N)C(=O)N[C@@H](CCCNC(=N)N)C(=O)N[C@@H](CCCCN)C(=O)N[C@@H](CCCCN)C(=O)NN(CCCNC(=N)N)CC(=O)N[C@H](C(N)=O)[C@@H](C)O [RxxT[Azaβ3R]^P1-P8]	20.8 µM	similar	increased potency
CC(=O)N[C@@H](CCCNC(=N)N)C(=O)N[C@@H](C)C(=O)N[C@@H](CCCNC(=N)N)C(=O)N[C@@H](CCCNC(=N)N)C(=O)N[C@@H](CCCNC(=N)N)C(=O)N[C@@H](CCCCN)C(=O)N[C@@H](CCCCN)C(=O)NN(CCCNC(=N)N)CC(=O)N[C@H](C(N)=O)[C@@H](C)O [RxxT[Azaβ3R]^P1]	314 µM	low IC50 values	increased potency
CC(=O)N[C@@H](CCCNC(=N)N)C(=O)N[C@@H](C)C(=O)N[C@@H](CCCNC(=N)N)C(=O)N[C@@H](CCCNC(=N)N)C(=O)N[C@@H](CCCNC(=N)N)C(=O)N[C@@H](CCCCN)C(=O)N[C@@H](CCCCN)C(=O)NCc1ccc(C(=N)N)cc1 [Rxx[AMBA]^P1] (Ac-RARRRKK-{NH(4-amidinobenzyl)})	> 1000 µM	–	–
CC(=O)N[C@@H](CCCNC(=N)N)C(=O)N[C@@H](C)C(=O)N[C@@H](CCCNC(=N)N)C(=O)N[C@@H](CCCNC(=N)N)C(=O)N[C@@H](CCCNC(=N)N)C(=O)N[C@@H](CCCCN)C(=O)N[C@@H](CCCCN)C(=O)NC/C=C/CNC(=N)N [Rxx[ΔAR-CO2]^P1] (Ac-RARRRKK-X2; N-terminus and C-terminus assumed)	71 µM	low IC50 values	increased potency
